Experimental data from patent US11149031B2, “Substituted N-(3-fluoropropyl)-pyrrolidine compounds, processes for their preparation and therapeutic uses thereof” (SANOFI, priority 2016, dated 2021).

What was measured:
[1] = target: His6-ERα298-554 WT (ERα ligand-binding domain) (Homo sapiens (Human), UniProt P03372); assay: Test A: biochemical antagonist activity, LanthaScreen TR-FRET ERα coactivator assay, WT; details: asterisk (*): protocol using 10 nM estradiol; read-out: Antagonism WT IC50
How it was run: (§1)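 TR-FRET 520:495 nm emission ratio read after overnight room-temperature incubation; IC50 derived by 4-parameter logistic fit. Mix: 0.5 nM receptor LBD, 0.5 nM Tb-His6 antibody, 250 nM PGC1a peptide, 3 nM or 10 nM estradiol, pH 7.4 phosphate buffer.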

[2] = target: His6-ERα298-554 D538G mutant (ERα ligand-binding domain) (Homo sapiens (Human), UniProt P03372, D538G); assay: Test A: biochemical antagonist activity, LanthaScreen TR-FRET ERα coactivator assay, D538G mutant; details: asterisk (*): protocol using 10 nM estradiol; read-out: Antagonism D538G IC50
How it was run: as §1

[3] = target: His6-ERα298-554 Y537S mutant (ERα ligand-binding domain) (Homo sapiens (Human), UniProt P03372, Y537S); assay: Test A: biochemical antagonist activity, LanthaScreen TR-FRET ERα coactivator assay, Y537S mutant; details: asterisk (*): protocol using 10 nM estradiol; read-out: Antagonism Y537S IC50
How it was run: as §1

[4] = test system: MCF7 cells (breast tumor cells) WT; assay: Test B: cell proliferation/viability assay (CellTiter-Glo) on MCF7 WT; format: cell-based; details: Homo sapiens, MCF7, 168 h, 7 days of compound exposure
How it was run: (§2)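 CellTiter-Glo luminescence after 7-day exposure; % viability = background-corrected RLU of sample relative to untreated. MCF7 WT or ER Tyr 537 Ser/Asp 538 Gly mutant-dependent lines, phenol red-free MEM, 5% charcoal-stripped FBS; 3-0.000001 μM, 9 points.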

[5] = test system: MCF7 cells expressing mutant estrogen receptor Tyr 537 Ser; assay: Test B: cell proliferation/viability assay (CellTiter-Glo) on MCF7 Tyr 537 Ser mutant; format: cell-based; details: Homo sapiens, MCF7, 168 h, MCF7 cells expressing ER Tyr 537 Ser mutant, 7 days of compound exposure, read-out: proliferation MCF7 Y537S IC50
How it was run: as §2

[6] = test system: MCF7 cells expressing mutant estrogen receptor Asp 538 Gly; assay: Test B: cell proliferation/viability assay (CellTiter-Glo) on MCF7 Asp 538 Gly mutant; format: cell-based; details: Homo sapiens, MCF7, 168 h, MCF7 cells expressing ER Asp 538 Gly mutant, 7 days of compound exposure, read-out: proliferation MCF7 D538G IC50
How it was run: as §2

[7] = target: ERα in MCF7 cells (Homo sapiens (Human), UniProt P03372); assay: Test C: estrogen receptor degradation activity, ERα in cell western assay in MCF7 cells; format: cell-based; details: for DC50: 4 hours post compound addition, ERα in cell western, read-out: Degradation IC50; for % Degradation at 3 μM: 4 hours, relative to fulvestrant
How it was run: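 In-cell western, MCF7, 4 h compound exposure, 3–0.000018 μM final, 9 points, 1:5 steps. Formalin/Triton fix, anti-ER rabbit mAb overnight cold, Alexa 488 secondary plus 2 μM Syto-64. Green intensity = ERα, red = DNA; no-primary wells as background.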

Chain of ERα in MCF7 cells (P03372 whole entry): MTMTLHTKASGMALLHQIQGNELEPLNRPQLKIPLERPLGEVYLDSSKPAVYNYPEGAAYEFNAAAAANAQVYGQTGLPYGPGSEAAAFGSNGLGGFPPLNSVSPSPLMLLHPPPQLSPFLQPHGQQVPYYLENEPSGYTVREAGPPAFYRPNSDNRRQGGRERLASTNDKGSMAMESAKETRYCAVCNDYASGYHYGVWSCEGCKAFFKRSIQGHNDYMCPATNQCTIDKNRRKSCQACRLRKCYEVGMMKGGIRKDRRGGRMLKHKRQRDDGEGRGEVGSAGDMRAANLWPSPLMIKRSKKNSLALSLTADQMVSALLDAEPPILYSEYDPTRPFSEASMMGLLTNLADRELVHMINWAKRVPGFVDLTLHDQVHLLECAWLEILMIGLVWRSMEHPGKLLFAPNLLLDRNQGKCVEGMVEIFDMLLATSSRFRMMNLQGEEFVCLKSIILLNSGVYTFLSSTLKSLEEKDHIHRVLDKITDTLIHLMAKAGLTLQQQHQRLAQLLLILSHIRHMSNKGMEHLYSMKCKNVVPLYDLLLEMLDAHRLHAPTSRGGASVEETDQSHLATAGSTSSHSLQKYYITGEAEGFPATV
Chain of His6-ERα298-554 Y537S mutant (ERα ligand-binding domain) (P03372 298-554 Y537S): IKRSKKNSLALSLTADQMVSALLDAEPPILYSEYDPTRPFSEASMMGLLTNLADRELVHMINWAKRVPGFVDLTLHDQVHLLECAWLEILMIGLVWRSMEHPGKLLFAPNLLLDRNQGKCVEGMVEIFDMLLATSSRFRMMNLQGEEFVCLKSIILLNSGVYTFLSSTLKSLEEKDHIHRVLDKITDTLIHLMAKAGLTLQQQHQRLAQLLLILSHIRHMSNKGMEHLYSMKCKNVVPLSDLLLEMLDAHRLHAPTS
Chain of His6-ERα298-554 WT (ERα ligand-binding domain) (P03372 298-554): as the sequence (P03372 298-554 Y537S) above, with S240Y counted along it
Chain of His6-ERα298-554 D538G mutant (ERα ligand-binding domain) (P03372 298-554 D538G): as the sequence (P03372 298-554 Y537S) above, with S240Y, D241G counted along it

SMILES | IC50 [1] [nM] | IC50 [2] [nM] | IC50 [3] [nM] | IC50 [4] [nM] | IC50 [5] [nM] | IC50 [6] [nM] | DC50 [7] [nM] | % Degradation at 3 μM [7] [%]
Oc1ccc2c(c1)SCC(c1ccc(Cl)nc1F)=C2c1ccc(O[C@H]2CCN(CCCF)C2)cc1 [Example 55, 3-(6-chloro-2-fluoro-3-pyridyl)-4-[4-[(3S)-1-(3-fluoropropyl)pyrrolidin-3-yl]oxyphenyl]-2H-thiochromen-7-ol] | 48 | 971 | 444 | 0.7 | 5 | 0.3 | 0.2 | 88
Cc1ccc(C2=C(c3ccc(O[C@H]4CCN(CCCF)C4)cc3)c3ccc(O)cc3SC2)c(Cl)n1 [Example 56, 3-(2-chloro-6-methyl-3-pyridyl)-4-[4-[(3S)-1-(3-fluoropropyl)pyrrolidin-3-yl]oxyphenyl]-2H-thiochromen-7-ol] | 37 | 721 | 358 | 0.6 | 14 | 0.7 | 0.2 | 86
Cc1ccc(C2=C(c3ccc(O[C@H]4CCN(CCCF)C4)cc3)c3ccc(O)cc3[S+]([O-])C2)c(F)c1 (stereo partly drawn) [Example 57, 3-(2-fluoro-4-methyl-phenyl)-4-[4-[(3S)-1-(3-fluoropropyl)pyrrolidin-3-yl]oxyphenyl]-1-oxo-2H-thiochromen-7-ol] | 1070 | > 4000 | > 4000 | 33 | > 999 | > 999 | 3 | 89
CC(C)(C)OC(=O)N1CCOc2ccc(C3=C(c4ccc(O[C@H]5CCN(CCCF)C5)cc4)c4ccc(O)cc4SC3)cc21 [Example 59, tert-butyl 6-[4-[4-[(3S)-1-(3-fluoropropyl)pyrrolidin-3-yl]oxyphenyl]-7-hydroxy-2H-thiochromen-3-yl]-2,3-dihydro-1,4-benzoxazine-4-carboxylate] | 879 | > 4000 | > 4000 | 27 | > 999 | > 999 | 0.9 | 81
Oc1ccc2c(c1)SCC(c1ccc(OCF)cc1)=C2c1ccc(O[C@H]2CCN(CCCF)C2)cc1 [Example 60, 3-[4-(fluoromethoxy)phenyl]-4-[4-[(3S)-1-(3-fluoropropyl)pyrrolidin-3-yl]oxyphenyl]-2H-thiochromen-7-ol] | 9 | 215 | 103 | 0.5 | 3 | 0.4 | 0.2 | 73
Oc1ccc2c(c1)SCC(c1ccc(CF)cc1)=C2c1ccc(O[C@H]2CCN(CCCF)C2)cc1 [Example 61, 3-[4-(fluoromethyl)phenyl]-4-[4-[(3S)-1-(3-fluoropropyl)pyrrolidin-3-yl]oxyphenyl]-2H-thiochromen-7-ol] | 37 | 686 | 437 | 2 | 17 | 0.6 | 0.2 | 82
Oc1ccc2c(c1)SCC(c1ccc(C(F)F)cc1F)=C2c1ccc(O[C@H]2CCN(CCCF)C2)cc1 [Example 62, 3-[4-(difluoromethyl)-2-fluoro-phenyl]-4-[4-[(3S)-1-(3-fluoropropyl)pyrrolidin-3-yl]oxyphenyl]-2H-thiochromen-7-ol] | 27 | 523 | 271 | 0.4 | 6 | 0.2 | 0.2 | 80
CCOc1ccc(C2=C(c3ccc(O[C@H]4CCN(CCCF)C4)cc3)c3ccc(O)cc3SC2)c(F)c1Cl [Example 63, 3-(3-chloro-4-ethoxy-2-fluoro-phenyl)-4-[4-[(3S)-1-(3-fluoropropyl)pyrrolidin-3-yl]oxyphenyl]-2H-thiochromen-7-ol] | 318 | > 4000 | 2450 | 5 | > 999 | 5 | 0.3 | 86
